Laboratory results: US20230416205A1, “COMPOUNDS, COMPOSITIONS, AND METHODS” (Denali Therapeutics Inc, priority 2020, published 2023)
Like-named read-outs stand apart in the source and are kept apart here.

System: NLRP3
Assay: IL-1β secretion assay in PMA-differentiated, LPS/nigericin-stimulated THP-1 cells (384-well, ELISA read-out)
Format: cell-based, human
Conditions: Homo sapiens
How it was run: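 THP-1 cells differentiated with PMA (5 ng/mL, 40 h), primed in serum-free medium with 25 ng/mL LPS for 2 h, treated with compounds 1 h (0.5% DMSO), then stimulated with nigericin for 2 h at 37 °C. Supernatant IL-1β measured by ELISA; responses normalized to LPS+5 μM nigericin and LPS-only controls.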

[1] = THP-1, IL-1β secretion, PMA-differentiated THP-1 cells, LPS then nigericin stimulation, ELISA read at 450 nm, read-out: Activity
[2] = THP-1, Table 4, IL-1β secretion, LPS/nigericin-stimulated THP-1 cells, read-out: IC50

| SMILES | IC50 [1] | IC50 [2] |
| --- | --- | --- |
| O=C(CN1CC2(CC2)c2cc(Br)ccc2C1=O)Nc1ccc(F)cn1 [Example 208, 2-(6-bromo-1-oxospiro[3H-isoquinoline-4,1′-cyclopropane]-2-yl)-N-(5-fluoropyridin-2-yl)acetamide] | < 10000 nM | 709 nM |
| O=C(CN1CC2(CC2)c2cc(Br)ccc2C1=O)Nc1nc2ncccc2o1 [Example 209, 2-(6-bromo-1-oxo-spiro[3H-isoquinoline-4,1′-cyclopropane]-2-yl)-N-oxazolo[4,5-b]pyridin-2-yl-acetamide] | < 10000 nM | 3560 nM |
| O=C(CN1CC2(CC2)c2cc(Br)ccc2C1=O)Nc1nc2cnccc2o1 [Example 210, 2-(6-bromo-1-oxo-spiro[3H-isoquinoline-4,1′-cyclopropane]-2-yl)-N-oxazolo[4,5-c]pyridin-2-yl-acetamide] | < 10000 nM | 822 nM |
| O=C(CN1CC2(CC2)c2cc(Br)ccc2C1=O)Nc1nc2cccnc2o1 [Example 211, 2-(6-bromo-1-oxo-spiro[3H-isoquinoline-4,1′-cyclopropane]-2-yl)-N-oxazolo[5,4-b]pyridin-2-yl-acetamide] | < 10000 nM | 1180 nM |
| O=C(CN1CC2(CC2)c2cc(Br)ccc2C1=O)Nc1nc2ccncc2o1 [Example 212, 2-(6-bromo-1-oxo-spiro[3H-isoquinoline-4,1′-cyclopropane]-2-yl)-N-oxazolo[5,4-c]pyridin-2-yl-acetamide] | < 10000 nM | 589 nM |
| O=C(CN1CC2(CC2)c2cc(Br)ccc2C1=O)Nc1ncc2c(n1)COC2 [Example 213, 2-(6-bromo-1-oxospiro[3H-isoquinoline-4,1′-cyclopropane]-2-yl)-N-(5,7-dihydrofuro[3,4-d]pyrimidin-2-yl)acetamide] | < 10000 nM | 1340 nM |
| O=C(CN1CC2(CC2)c2cc(Br)ccc2C1=O)Nc1nccc(=O)[nH]1 [Example 214, 2-(6-bromo-1-oxospiro[3H-isoquinoline-4,1′-cyclopropane]-2-yl)-N-(6-oxo-1H-pyrimidin-2-yl)acetamide] | < 10000 nM | 7500 nM |
| O=C(CN1CC2(CC2)c2cc(F)ccc2C1=O)Nc1ncc(F)cn1 [Example 215, 2-(6-fluoro-1-oxospiro[3H-isoquinoline-4,1′-cyclopropane]-2-yl)-N-(5-fluoropyrimidin-2-yl)acetamide] | < 10000 nM | 6860 nM |
| Cc1cc(NC(=O)CN2CC3(CC3)c3cc(Br)ccc3C2=O)nc(C)n1 [Example 216, 2-(6-bromo-1-oxospiro[3H-isoquinoline-4,1′-cyclopropane]-2-yl)-N-(2,6-dimethylpyrimidin-4-yl)acetamide] | < 10000 nM | 3980 nM |
| Cc1cnc(NC(=O)CN2CC3(CC3)c3cc(Br)ccc3C2=O)nc1C [Example 217, 2-(6-bromo-1-oxospiro[3H-isoquinoline-4,1′-cyclopropane]-2-yl)-N-(4,5-dimethylpyrimidin-2-yl)acetamide] | < 10000 nM | 862 nM |
| Cn1ncnc1NC(=O)CN1CC2(CC2)c2cc(Br)ccc2C1=O [Example 218, 2-(6-bromo-1-oxospiro[3H-isoquinoline-4,1′-cyclopropane]-2-yl)-N-(2-methyl-1,2,4-triazol-3-yl)acetamide] | < 10000 nM | 9180 nM |
| N#Cc1ccc2oc(NC(=O)CN3CC4(CC4)c4cc(Br)ccc4C3=O)nc2c1 [Example 219, 2-(6-bromo-1-oxospiro[3H-isoquinoline-4,1′-cyclopropane]-2-yl)-N-(5-cyano-1,3-benzoxazol-2-yl)acetamide] | < 10000 nM | 1620 nM |
| N#Cc1cnc(NC(=O)CN2C[C@@]3(C[C@@H]3F)c3c(ccc(C4CC4)c3F)C2=O)nc1 [Example 230, 2-[(2′s,4r)-6-cyclopropyl-2′,5-difluoro-1-oxospiro[3H-isoquinoline-4,1′-cyclopropane]-2-yl]-N-(5-cyanopyrimidin-2-yl)acetamide] | < 10000 nM | 51 nM |
| O=C(CN1C[C@]2(C[C@H]2F)c2cc(C3CC3)ccc2C1=O)Nc1ncc(F)cn1 [Example 231] | < 10000 nM | 50 nM |
| O=C(CN1C[C@]2(C[C@H]2F)c2cc(C3CC3)ccc2C1=O)Nc1ncc(Cl)cn1 [Example 232] | < 10000 nM | 28 nM |
| N#Cc1cnc(NC(=O)CN2C[C@]3(C[C@H]3F)c3cc(C4CC4)ccc3C2=O)nc1 [Example 233] | < 10000 nM | 45 nM |
| O=C(CN1C[C@]2(C[C@H]2F)c2cc(I)ccc2C1=O)Nc1ncc(F)cn1 [Example 246] | < 10000 nM | 6 nM |
| O=C(CN1C[C@]2(C[C@H]2F)c2cc(I)ccc2C1=O)Nc1ncccn1 [Example 247] | < 10000 nM | 10 nM |

| SMILES | IC50 [1] | IC50 [2] |
| --- | --- | --- |
| O=C(CN1C[C@]2(C[C@H]2F)c2cc(C3(F)CC3)ccc2C1=O)Nc1ncc(F)cn1 [Example 249] | < 10000 nM | 15 nM |
| O=C(CN1C[C@]2(C[C@H]2F)c2cc(C3(F)CC3)ccc2C1=O)Nc1ncc(Cl)cn1 [Example 250] | < 10000 nM | 14 nM |
| O=C(CN1CC2(CC2)c2cc(C3(F)CC3)ccc2C1=O)Nc1ncc(F)cn1 [Example 255, 2-[6-(1-fluorocyclopropyl)-1-oxospiro[3H-isoquinoline-4,1′-cyclopropane]-2-yl]-N-(5-fluoropyrimidin-2-yl)acetamide] | < 10000 nM | 148 nM |
| O=C(CN1CC2(CC2)c2cc(Br)ccc2C1=O)Nc1ncc(C2CCC2)cn1 [Example 256, 2-(6-bromo-1-oxospiro[3H-isoquinoline-4,1′-cyclopropane]-2-yl)-N-(5-cyclobutylpyrimidin-2-yl)acetamide] | < 10000 nM | 395 nM |
| Cn1cc(-c2cnc(NC(=O)CN3CC4(CC4)c4cc(Br)ccc4C3=O)nc2)cn1 [Example 257, 2-(6-bromo-1-oxospiro[3H-isoquinoline-4,1′-cyclopropane]-2-yl)-N-[5-(1-methylpyrazol-4-yl)pyrimidin-2-yl]acetamide] | < 10000 nM | 392 nM |
| O=C(CN1CC2(CC2)c2cc(Br)ccc2C1=O)Nc1ncc(C2CCOC2)cn1 (stereo not drawn) [Example 258, 2-(6-bromo-1-oxospiro[3H-isoquinoline-4,1′-cyclopropane]-2-yl)-N-[5-(oxolan-3-yl)pyrimidin-2-yl]acetamide] | < 10000 nM | 526 nM |
| Cc1nc(NC(=O)CN2CC3(CC3)c3cc(Br)ccc3C2=O)ncc1C#N [Example 259, 2-(6-bromo-1-oxospiro[3H-isoquinoline-4,1′-cyclopropane]-2-yl)-N-(5-cyano-4-methylpyrimidin-2-yl)acetamide] | < 10000 nM | 437 nM |
| O=C(CN1CC2(CC2)c2cc(Br)ccc2C1=O)Nc1nc2cnccn2n1 [Example 260, 2-(6-bromo-1-oxospiro[3H-isoquinoline-4,1′-cyclopropane]-2-yl)-N-([1,2,4]triazolo[1,5-a]pyrazin-2-yl)acetamide] | < 10000 nM | 205 nM |
| O=C(CN1CC2(CC2)c2cc(Br)ccc2C1=O)Nc1nc2cc(Cl)ccn2n1 [Example 261, 2-(6-bromo-1-oxospiro[3H-isoquinoline-4,1′-cyclopropane]-2-yl)-N-(7-chloro-[1,2,4]triazolo[1,5-a]pyridin-2-yl)acetamide] | < 10000 nM | 224 nM |
| COc1ccc2nc(NC(=O)CN3CC4(CC4)c4cc(Br)ccc4C3=O)nn2c1 [Example 262, 2-(6-bromo-1-oxospiro[3H-isoquinoline-4,1′-cyclopropane]-2-yl)-N-(6-methoxy-[1,2,4]triazolo[1,5-a]pyridin-2-yl)acetamide] | < 10000 nM | 253 nM |
| O=C(CN1CC2(CC2)c2cc(Br)ccc2C1=O)Nc1nc2ccc(F)cn2n1 [Example 263, 2-(6-bromo-1-oxospiro[3H-isoquinoline-4,1′-cyclopropane]-2-yl)-N-(6-fluoro-[1,2,4]triazolo[1,5-a]pyridin-2-yl)acetamide] | < 10000 nM | 281 nM |
| O=C(CN1CC2(CC2)c2cc(Br)ccc2C1=O)Nc1nc2ccc(Cl)cn2n1 [Example 264, 2-(6-bromo-1-oxospiro[3H-isoquinoline-4,1′-cyclopropane]-2-yl)-N-(6-chloro-[1,2,4]triazolo[1,5-a]pyridin-2-yl)acetamide] | < 10000 nM | 312 nM |
| O=C(CN1CC2(CC2)c2cc(Br)ccc2C1=O)Nc1nc2cc(C(F)(F)F)ccn2n1 [Example 265, 2-(6-bromo-1-oxospiro[3H-isoquinoline-4,1′-cyclopropane]-2-yl)-N-[7-(trifluoromethyl)-[1,2,4]triazolo[1,5-a]pyridin-2-yl]acetamide] | < 10000 nM | 335 nM |
| O=C(CN1CC2(CC2)c2cc(Br)ccc2C1=O)Nc1nc2ccc(F)cc2o1 [Example 267, 2-(6-bromo-1-oxospiro[3H-isoquinoline-4,1′-cyclopropane]-2-yl)-N-(6-fluoro-1,3-benzoxazol-2-yl)acetamide] | < 10000 nM | 359 nM |
| O=C(CN1CC2(CC2)c2cc(Br)ccc2C1=O)N[C@@H]1CCCN(C2CC2)C1 [Example 268, 2-(6-bromo-1-oxospiro[3H-isoquinoline-4,1′-cyclopropane]-2-yl)-N-[(3R)-1-cyclopropylpiperidin-3-yl]acetamide] | < 10000 nM | 192 nM |
| O=C(CN1CC2(CC2)c2cc(Br)ccc2C1=O)Nc1ncc(I)cn1 [Example 269, 2-(6-bromo-1-oxospiro[3H-isoquinoline-4,1′-cyclopropane]-2-yl)-N-(5-iodopyrimidin-2-yl)acetamide] | < 10000 nM | 87 nM |
| O=C(CN1CC2(CC2)c2cc(Br)ccc2C1=O)Nc1ncc(OC(F)F)cn1 [Example 270, 2-(6-bromo-1-oxospiro[3H-isoquinoline-4,1′-cyclopropane]-2-yl)-N-[5-(difluoromethoxy)pyrimidin-2-yl]acetamide] | < 10000 nM | 286 nM |
| O=C(CN1C[C@]2(C[C@H]2F)c2cc(Br)ccc2C1=O)Nc1nc2ccccn2n1 [Example 271] | < 10000 nM | 29 nM |
